The record followed here is ChEMBL document CHEMBL1201862, “PubChem BioAssay data set” (2004).

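Interpolation was linear, between the two tested concentrations surrounding the appropriate level; five concentrations were tested over 48 hours in 96-well plates. GI50 is the concentration that inhibits growth by half.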 Calls of active or inactive are those of the source. Rule as the data show it: active = GI50 up to about 1.1 µM and inactive = higher.

Test systems include UACC-257; BT-549; OVCAR-5; NCI-H226; COLO 205; M14; NCI-H23; HCT-116; CAKI-1; SF-539; A549; PC-3; KM-20L2; HCC 2998; SNB-75; SK-MEL-2; MDA-MB-231; NCI-H460; MDA-MB-435.
What all share (assay): DTP human tumour cell line panel, 48 h

Broadly, the GI50 is the concentration at which growth is held to half of that of the control.

In the case of `CC1(C)OCC(CO)(Nc2nc(N3CC3)nc(N3CC3)n2)CO1`, the GI50 is 14.7 µM (inactive) in the assay on UACC-257; 26.1 µM (inactive) with BT-549; 20 µM (inactive) with OVCAR-5; 8.13 µM (inactive) in the assay with NCI-H226; 20.3 µM (inactive) with COLO 205; 9.2 µM (inactive) in the assay with M14. The GI50 in the assay with NCI-H23 is 4.12 µM (inactive); in the assay with HCT-116, 1.85 µM (inactive); in the assay on CAKI-1, 1.52 µM (inactive); with SF-539, 4.18 µM (inactive); with A549, 4.05 µM (inactive); in the assay on PC-3, 17.9 µM (inactive). The GI50 was 18.6 µM (inactive) in the assay with KM-20L2; 16.9 µM (inactive) in the assay with HCC 2998; 6.58 µM (inactive) in the assay with SNB-75; 19 µM (inactive) in the assay with SK-MEL-2; > 10 µM (inactive) in the assay with MDA-MB-231; 0.38 µM (active) in the assay on NCI-H460. In the assay on MDA-MB-435, the GI50 was 19.5 µM (inactive).
For `CC(C)(C)NNC(=O)/C(=C/c1ccc([N+](=O)[O-])cc1)NC(=O)c1ccccc1`, the GI50 in the assay with UACC-257 was > 100 µM (inactive); with OVCAR-5 it was > 100 µM (inactive); in the assay on NCI-H226, 24.2 µM (inactive); in the assay on COLO 205 it was 29 µM (inactive); in the assay with M14, > 100 µM (inactive); in the assay on NCI-H23, > 100 µM (inactive). The GI50 with HCT-116 is > 10 µM (inactive); in the assay with CAKI-1 it was > 100 µM (inactive); in the assay on SF-539 it was > 100 µM (inactive); with A549, > 100 µM (inactive); in the assay on KM-20L2, > 100 µM (inactive); with HCC 2998, > 100 µM (inactive). For the same molecule, the results for the GI50 in the assay on SNB-75, in the assay on SK-MEL-2 and with NCI-H460 were > 100 µM (inactive), > 100 µM (inactive) and 60.1 µM (inactive), respectively.
In the case of `CCCC(O)c1cn(-c2cccc(S(=O)(=O)O)c2)nn1` (centres undefined), the GI50 in the assay on UACC-257, with OVCAR-5, in the assay with NCI-H226, in the assay with COLO 205, in the assay on M14 and with NCI-H23 was > 100 µM (inactive) each time. In addition, the GI50 in the assay with HCT-116, in the assay with CAKI-1, with SF-539, in the assay with A549, with KM-20L2 and in the assay with HCC 2998 was > 100 µM (inactive) throughout. Also, the GI50 in the assay on SNB-75, in the assay on SK-MEL-2 and with NCI-H460 was > 100 µM (inactive) in each case.
